Assay [1] deals with C-domain of MALT1 (amino acids 329-824) (Homo sapiens (Human), UniProt Q9UDY8). As to the kind of experiment: MALT1 biochemical assay (fluorescence lifetime enzyme activity assay). The note with it: 60 min pre-incubation, 2.5 nM enzyme, 1 μM peptide substrate. The method, then:
The readout parameter is the increase of fluorescence lifetime over time, proportional to enzyme activity.
The assay employs a short peptide substrate labeled with the single fluorophore PT14 as a fluorescence lifetime probe sensitive to the cleavage state of the substrate (PT14: 6-(9-oxo-9H-acridin-10-yl)-hexanoate, AssayMetrics, UK). […] The assay buffer consists of 200 mM Tris/HCl at pH 7.5, 0.8 M Na citrate, 100 μM EGTA, 100 μM DTT and 0.05% (w/v) CHAPS. […] Test compounds were dissolved in 100% (v/v) DMSO or a mixture containing 90% (v/v) DMSO and 10% (v/v) H2O at a stock concentration of 100 mM. Serial dilutions of test compounds were prepared using either 100% (v/v) DMSO or a mixture containing 90% (v/v) DMSO and 10% (v/v) H2O.

In another assay the test system is Human IL2 promoter. As to the kind of experiment: Human IL2 promoter reporter gene assay (RGA) in Jurkat cells. The note with it: Jurkat clone K22 290_H23, anti-CD28 mAb + PMA stimulation 5.5 h. The assay is classed as cell-based. As for the experimental part:
Human IL2 Promoter Reporter Gene Assay (RGA) in Jurkat Cells
The transfected Jurkat clone K22 290_H23 was propagated in RPMI 1640 supplemented with 10% heat inactivated fetal calf serum, 50 μM 2-mercaptoethanol and 1 mg/ml Geneticin. The cell concentration should not exceed 1×10e6/ml during culturing. The cells should not exceed passage 30. Prior to the assay the cells were washed and prepared to the concentration of 2×10e6 cells/ml.
Compound dilutions were made as 2×-concentrated solutions then diluted 1/2 by addition to cells. Two hundred and fifty μl of compound dilution and 250 μl of cells were mixed together in wells of a 96-deep well plate. Cells/compounds premix were incubated 30 min at 37° C. and 5% CO2 directly in the deep well plate.
After pre-incubation of cells with compounds, cells were stimulated with anti-CD28 mAb (clone 15E8) at 3 μg/ml+PMA at 1 μg/ml. Both co-stimulants were diluted in culture medium at a 10×-concentrated solution. 10 μl of co-stimulants were pipetted into the white 96-well plates and 100 μl of cell/compound mix was immediately added in duplicates. The cells were stimulated for 5.5 h at 37° C. and 5% CO2.
After cell stimulation, 50 μl of BriteLitePlus reagent (Perkin Elmer) was added to each well and the bioluminescence was measured with a Wallac EnVision reader (Perkin Elmer).

For assay [2], the target named is cIAP2-MALT1 fusion protein (Homo sapiens, UniProt Q9UDY8). As to the kind of experiment: cell-based.
Protocol: For the measurement of compound inhibition, 0.25 μl of test compound were mixed with 12.5 μl of enzyme in wells of the 384-well plates, and incubated for 60 minutes at room temperature (22° C.). After that, 12.5 μl of substrate was added, and the enzymatic reaction was allowed to proceed for 60 minutes at room temperature (22° C.). […] The DMSO content was between 0.9 and 1% (v/v). […] The IC50 value was calculated from the plot of percentage inhibition versus inhibitor concentration using non-linear regression analysis software (Origin, OriginLab Corporation, USA). The data were fitted using a 4 Parameter Logistic Model, characterized by the following equation: y=A2+(A1−A2)/(1+(x/IC50)^p) where y is the %-inhibition at the inhibitor concentration, x. A1 is the lowest inhibition value, and A2 the maximum inhibition value.

Each structure is given as a SMILES string. pIC50: −log10 of the molar value.

C-domain of MALT1 (amino acids 329-824), sequence (Q9UDY8 329-824): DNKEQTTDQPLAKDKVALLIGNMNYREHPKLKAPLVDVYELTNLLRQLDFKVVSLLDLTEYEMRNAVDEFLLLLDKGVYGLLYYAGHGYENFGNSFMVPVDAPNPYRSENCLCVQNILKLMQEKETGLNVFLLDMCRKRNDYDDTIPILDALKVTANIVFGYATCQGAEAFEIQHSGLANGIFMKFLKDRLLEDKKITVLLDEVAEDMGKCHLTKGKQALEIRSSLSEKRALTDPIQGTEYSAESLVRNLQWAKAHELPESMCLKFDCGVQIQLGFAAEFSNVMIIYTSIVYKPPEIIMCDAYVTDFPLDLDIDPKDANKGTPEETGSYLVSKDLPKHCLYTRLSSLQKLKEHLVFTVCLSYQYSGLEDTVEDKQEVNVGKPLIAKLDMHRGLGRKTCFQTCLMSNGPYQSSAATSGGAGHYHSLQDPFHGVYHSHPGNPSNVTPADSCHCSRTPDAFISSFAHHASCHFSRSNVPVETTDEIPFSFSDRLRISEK
cIAP2-MALT1 fusion protein, sequence (Q9UDY8 2-824 limits assumed): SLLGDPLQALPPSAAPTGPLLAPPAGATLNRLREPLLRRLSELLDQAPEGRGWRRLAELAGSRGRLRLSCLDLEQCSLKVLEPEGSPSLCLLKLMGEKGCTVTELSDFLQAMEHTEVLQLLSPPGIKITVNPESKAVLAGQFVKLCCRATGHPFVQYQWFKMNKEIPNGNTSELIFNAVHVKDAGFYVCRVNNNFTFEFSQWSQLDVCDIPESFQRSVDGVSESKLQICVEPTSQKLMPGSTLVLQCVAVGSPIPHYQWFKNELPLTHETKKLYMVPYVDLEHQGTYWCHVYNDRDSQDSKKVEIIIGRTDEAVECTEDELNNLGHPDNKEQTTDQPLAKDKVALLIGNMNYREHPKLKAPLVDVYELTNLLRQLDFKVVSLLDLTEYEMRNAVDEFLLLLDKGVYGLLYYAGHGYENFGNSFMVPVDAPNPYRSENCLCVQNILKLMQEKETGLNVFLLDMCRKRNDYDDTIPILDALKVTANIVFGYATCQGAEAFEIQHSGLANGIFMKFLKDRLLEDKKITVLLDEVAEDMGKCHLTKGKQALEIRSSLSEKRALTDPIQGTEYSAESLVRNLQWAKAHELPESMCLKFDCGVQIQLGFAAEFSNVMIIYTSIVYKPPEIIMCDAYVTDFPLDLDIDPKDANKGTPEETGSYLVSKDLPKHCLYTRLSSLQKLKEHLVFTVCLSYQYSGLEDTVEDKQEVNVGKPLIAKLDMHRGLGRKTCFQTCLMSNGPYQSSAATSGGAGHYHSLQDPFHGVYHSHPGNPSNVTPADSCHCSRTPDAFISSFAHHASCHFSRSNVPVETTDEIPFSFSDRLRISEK

For `COC(=O)c1cc(Cl)cc(NC(=O)Nc2cnc3cc(Cl)nn3c2[C@H](C)OC)c1` [Example 13, (S)-methyl 3-chloro-5-(3-(2-chloro-7-(1-methoxyethyl)pyrazolo[1,5-a]pyrimidin-6-yl)ureido)benzoate], the pIC50 in assay [1] was 8.70; in the assay on Human IL2 promoter, 7.41; in assay [2], 7.11.
Consider `CC(C)c1c(NC(=O)Nc2ccc(-c3ccnc(N)n3)c(Cl)c2)cnc2cc(Cl)nn12` [Example 23, 1-(4-(2-aminopyrimidin-4-yl)-3-chlorophenyl)-3-(2-chloro-7-isopropylpyrazolo[1,5-a]pyrimidin-6-yl)urea], for which the pIC50 was 6.51 with Human IL2 promoter and 6.52 in assay [2].
As to `CCOc1ncc(NC(=O)Nc2cnc3cc(Cl)nn3c2C(C)C)cc1Cl` [Example 25, 1-(5-chloro-6-ethoxypyridin-3-yl)-3-(2-chloro-7-isopropylpyrazolo[1,5-a]pyrimidin-6-yl)urea], the pIC50 is 6.28 with Human IL2 promoter and 6.51 in assay [2].
As to `CC1(c2c(NC(=O)Nc3ccnc(C(F)(F)F)c3)cnc3cc(Cl)nn23)CCCO1` (centres unmarked) [Example 36, 1-(2-chloro-7-(2-methyltetrahydrofuran-2-yl)pyrazolo[1,5-a]pyrimidin-6-yl)-3-(2-(trifluoromethyl)pyridin-4-yl)urea], the pIC50 in assay [1] was 8.05; in assay [2], 6.74.
As to `CO[C@@H](c1c(NC(=O)Nc2ccnc(C(F)(F)F)c2)cnc2cc(Cl)nn12)C(C)C` [Example 37, (R)-1-(2-chloro-7-(1-methoxy-2-methylpropyl)pyrazolo[1,5-a]pyrimidin-6-yl)-3-(2-(trifluoromethyl)pyridin-4-yl)urea], the figures for the negative-log IC50 (pIC50) in assay [1] and in assay [2] were 7.96 and 6.66, respectively.
In the case of `COCCO[C@@H](C)c1c(NC(=O)Nc2cnc(-n3nccn3)c(Cl)c2)cnc2cc(Cl)nn12` [Example 39, (S)-1-(5-chloro-6-(2H-1,2,3-triazol-2-yl)pyridin-3-yl)-3-(2-chloro-7-(1-(2-methoxyethoxy)ethyl)pyrazolo[1,5-a]pyrimidin-6-yl)urea], the figures for the pIC50 in assay [1] and in assay [2] were 8.52 and 7.22, respectively.
For the compound `COCCO[C@H](C)c1c(NC(=O)Nc2cnc(-n3nccn3)c(Cl)c2)cnc2cc(Cl)nn12` [Example 42, (R)-1-(5-chloro-6-(2H-1,2,3-triazol-2-yl)pyridin-3-yl)-3-(2-chloro-7-(1-(2-methoxyethoxy)ethyl)pyrazolo[1,5-a]pyrimidin-6-yl)urea], the figures for the pIC50 in assay [1] and in assay [2] were 7.68 and 6.42, respectively.
Regarding `COC(c1ccccc1)c1c(NC(=O)Nc2cnc(-n3nccn3)c(Cl)c2)cnc2cc(Cl)nn12` (centres unmarked) [Example 49, 1-(5-chloro-6-(2H-1,2,3-triazol-2-yl)pyridin-3-yl)-3-(2-chloro-7-(methoxy(phenyl)methyl)pyrazolo[1,5-a]pyrimidin-6-yl)urea], the pIC50 in assay [1] is 8.52; in assay [2], 7.23.
As for `COCC1(c2c(NC(=O)Nc3cnc(-n4nccn4)c(Cl)c3)cnc3cc(Cl)nn23)CCC1` [Example 50, 1-(5-chloro-6-(2H-1,2,3-triazol-2-yl)pyridin-3-yl)-3-(2-chloro-7-(1-(methoxymethyl)cyclobutyl)pyrazolo[1,5-a]pyrimidin-6-yl)urea], the pIC50 in assay [1] is 7.70; in assay [2] it was 6.64.
In the case of `COc1ccccc1-c1c(NC(=O)Nc2cnc(-n3nccn3)c(Cl)c2)cnc2cc(Cl)nn12` [Example 53, 1-(5-chloro-6-(2H-1,2,3-triazol-2-yl)pyridin-3-yl)-3-(2-chloro-7-(2-methoxyphenyl)pyrazolo[1,5-a]pyrimidin-6-yl)urea], the figures for the negative-log IC50 (pIC50) in assay [1] and in assay [2] were 8.40 and 6.77, respectively.
As to `CC1(c2c(NC(=O)Nc3cnc(-n4nccn4)c(Cl)c3)cnc3cc(Cl)nn23)CCOCC1` [Example 55, 1-(5-chloro-6-(2H-1,2,3-triazol-2-yl)pyridin-3-yl)-3-(2-chloro-7-(4-methyltetrahydro-2H-pyran-4-yl)pyrazolo[1,5-a]pyrimidin-6-yl)urea], the negative logarithm of the IC50 (pIC50) is 8.30 in assay [1] and 6.54 in assay [2].
For `O=C(Nc1cnc(-n2nccn2)c(Cl)c1)Nc1cnc2cc(Cl)nn2c1C1CCOC1` (centres unmarked) [Example 57, 1-(5-chloro-6-(2H-1,2,3-triazol-2-yl)pyridin-3-yl)-3-(2-chloro-7-(tetrahydrofuran-3-yl)pyrazolo[1,5-a]pyrimidin-6-yl)urea], the results for the pIC50 in assay [1] and in assay [2] were 7.72 and 6.55, respectively.
With `O=C(Nc1cnc(-n2nccn2)c(Cl)c1)Nc1cnc2cc(Cl)nn2c1CC1CCOCC1` [Example 60, 1-(5-chloro-6-(2H-1,2,3-triazol-2-yl)pyridin-3-yl)-3-(2-chloro-7-((tetrahydro-2H-pyran-4-yl)methyl)pyrazolo[1,5-a]pyrimidin-6-yl)urea], the negative-log IC50 (pIC50) is 7.59 in assay [1] and 6.30 in assay [2].
`CC(C)OCc1c(NC(=O)Nc2cnc(-n3nccn3)c(Cl)c2)cnc2cc(Cl)nn12` [Example 61, 1-(5-chloro-6-(2H-1,2,3-triazol-2-yl)pyridin-3-yl)-3-(2-chloro-7-(isopropoxymethyl)pyraozlo[1,5-a]pyrimidin-6-yl)urea]: the pIC50 is 7.72 in assay [1] and 6.43 in assay [2].
Turning to `COCCC(OC)c1c(NC(=O)Nc2cnc(-n3nccn3)c(Cl)c2)cnc2cc(Cl)nn12` (centres unmarked) [Example 64, 1-(5-chloro-6-(2H-1,2,3-triazol-2-yl)pyridin-3-yl)-3-(2-chloro-7-(1,3-dimethoxypropyl)pyrazolo[1,5-a]pyrimidin-6-yl)urea], the pIC50 in assay [1] is 7.89; in assay [2], 6.73.
For `C[C@@H](OCc1ccccc1)c1c(NC(=O)Nc2cnc(-n3nccn3)c(C(F)(F)F)c2)cnc2cc(Cl)nn12` [Example 65, (R)-1-(6-(2H-1,2,3-triazol-2-yl)-5-(trifluoromethyl)pyridin-3-yl)-3-(7-(1-(benzyloxy)ethyl)-2-chloropyrazolo[1,5-a]pyrimidin-6-yl)urea], the results for the pIC50 in assay [1] and in assay [2] were 8.05 and 6.39, respectively.
The like results for `COc1ncc(NC(=O)Nc2cnc3cc(Cl)nn3c2C2C3COCC32)cc1Cl` (centres unmarked) [Example 67, 1-(7-(3-oxabicyclo[3.1.0]hexan-6-yl)-2-chloropyrazolo[1,5-a]pyrimidin-6-yl)-3-(5-chloro-6-methoxypyridin-3-yl)urea] were, in that order, 7.46 and 6.26.
In the case of `CN(C)C(=O)c1c(NC(=O)Nc2cnc(-n3nccn3)c(Cl)c2)cnc2cc(Cl)nn12` [Example 70, 2-chloro-6-(3-(5-chloro-6-(2H-1,2,3-triazol-2-yl)pyridin-3-yl)ureido)-N,N-dimethylpyrazolo[1,5-a]pyrimidine-7-carboxamide], the figures for the pIC50 in assay [1] and in assay [2] were 6.91 and 6.05, respectively.
On to `COCC1(c2c(NC(=O)Nc3ccnc(C(F)(F)F)c3)cnc3cc(Cl)nn23)CC1` [Example 77, 1-(2-chloro-7-(1-(methoxymethyl)cyclopropyl)pyrazolo[1,5-a]pyrimidin-6-yl)-3-(2-(trifluoromethyl)pyridin-4-yl)urea], for which the negative logarithm of the IC50 (pIC50) is 8.22 in assay [1] and 6.62 in assay [2].
Take `CC(C)(c1c(NC(=O)Nc2ccnc(C(F)(F)F)c2)cnc2cc(Cl)nn12)C1CCOCC1` [Example 80, 1-(2-chloro-7-(2-(tetrahydro-2H-pyran-4-yl)propan-2-yl)pyrazolo[1,5-a]pyrimidin-6-yl)-3-(2-(trifluoromethyl)pyridin-4-yl)urea]: the negative-log IC50 (pIC50) in assay [1] was 7.47; in assay [2], 6.21.
The like results for `C[C@H](OCCN(C)C)c1c(NC(=O)Nc2cnc(-n3nccn3)c(Cl)c2)cnc2cc(Cl)nn12` [Example 82, (S)-1-(5-chloro-6-(2H-1,2,3-triazol-2-yl)pyridin-3-yl)-3-(2-chloro-7-(1-(2-(dimethylamino)ethoxy)ethyl)pyrazolo[1,5-a]pyrimidin-6-yl)urea] were, in that order, 6.91 and 6.51.
For `CN1CCCC[C@H]1c1c(NC(=O)Nc2cnc(-n3nccn3)c(Cl)c2)cnc2cc(Cl)nn12` [Example 84, (S)-1-(5-chloro-6-(2H-1,2,3-triazol-2-yl)pyridin-3-yl)-3-(2-chloro-7-(1-methylpiperidin-2-yl)pyrazolo[1,5-a]pyrimidin-6-yl)urea] the same measures were 7.72 and 7.05.
Take `CO[C@H](C)CO[C@@H](C)c1c(NC(=O)Nc2cnc(-n3nccn3)c(Cl)c2)cnc2cc(Cl)nn12` [Example 85, 1-(5-chloro-6-(2H-1,2,3-triazol-2-yl)pyridin-3-yl)-3-(2-chloro-7-((S)-1-((R)-2-methoxypropoxy)ethyl)pyrazolo[1,5-a]pyrimidin-6-yl)urea]: the pIC50 in assay [1] was 8.30; in assay [2], 6.72.
